According to US20050256208A1, “Pharmaceutical composition containing bakuchiol for treating woman breast cancer” (Sinphar Pharmaceutical Co., Ltd., priority 2004, published 2005):
Values after ≈ are worked out from the molar mass of the structure shown.

How the values were obtained:
[1] = test system: human breast cancer cell line T47D (estrogen receptor positive); experiment: In vitro cytotoxicity assay (CCK-8), T47D; assay type: cell-based; settings: T47D cells, 48 hours incubation, read-out: 50% inhibition of cell growth concentration (IC50)
Description: (§1) Materials: DMEM (medium), RPMI (medium), L-glutamine, penicillin, streptomycin and FBS (fetal bovine serum) were obtained from Gibco (NY, USA). Culture plasticware was purchased from Corning (MA, USA). […] All other chemicals used were of reagent grade and were purchased from Sigma or E. Merck (Germany).
(§2) Cell lines and cell cultures: The human breast cancer cell lines T47D and MDA-MB231 were obtained from American Type Culture Collection (ATCC). Of both cancer cells, T47D is estrogen receptor positive, and MDA-MB231 is estrogen receptor negative. Cells were cultured at 37° C. in RPMI medium containing 10% charcoal-dextran stripped fetal bovine serum for T47D cells and in DMEM medium containing 10% charcoal-dextran stripped fetal bovine serum for MDA-MB231 cells with 5% CO2. The cell proliferation was determined by counting the viable cells with trypan blue exclusion.
(§3) Cytotoxicity assay: Dispense 198 μl of cell suspension (20,000 cells for T47D per well and 10,000 cell for MDA-MB231 per well) in a 96-well plate and pre-incubate the plate for 24 hours in an incubator at 37° C. with humidified 5% CO2. […] After plate was incubated for 48 hours in the incubator, media were aspirated of and new media (100 μl) were added and incubated for 1 more hour. […] Measure the absorbance at 450 nm using a ELISA reader.

[2] = test system: human breast cancer cell line MDA-MB231 (estrogen receptor negative); experiment: In vitro cytotoxicity assay (CCK-8), MDA-MB231; assay type: cell-based; settings: MDA-MB-231, MDA-MB231 cells, 48 hours incubation, read-out: 50% inhibition of cell growth concentration (IC50)
Description: as §1, §2, §3

[3] = test system: five different human cancer cells: lung (A549), ovary (SK-OV-3), skin (SK-MEL-2), central nervous system (XF498), large intestine (HCT); settings: five human cancer cells A549, SK-OV-3, SK-MEL-2, XF498, HCT; Arch. Pharm. Res. 15, 356-359 (1992); cited from earlier work
[4] = test system: ovariectomized female Wistar rats (osteoporosis caused by estrogen deficiency); experiment: Ovariectomized rat osteoporosis model, apparent bone density of tibia; assay type: in vivo; settings: two months, mean value, OVX group 1.549, Sham 1.589
Description: The purpose of this example is to show the potency of bakuchiol in treating osteoporosis, wherein ovary of a female rat is removed to stimulate osteoporosis caused by estrogen deficiency.
The female Wistar rats of 16 weeks old (unless specified in the other experiment description) were obtained from the stock reared by the Animal breeding center, National Scientific Council in Taipei. These rats were grouped by weights matched in order to distribute the physiological response variation from rats evenly into each group. These rats were grouping as follows: • Baseline group fed with no drug added food (n=8) • Sham operation group fed with no drug added food (Sham) (n=10) • Ovariectomy operation group fed with no drug added food (OVX) (n=8) • Ovariectomy operation group fed with Drug A (5 mg/kg) added food (OVX+A) (n=9) • Ovariectomy operation group fed with Drug B (15 mg/kg) added food (OVX+B) (n=9)
Ovariectomy (removal of ovaries) operation: Ovariectomy was induced using a protocol similar to that described by Wronski et al (Wronski et al, Endocrinology, 123(2), 681-86 (1988)). […]
The whole tibia and femur were stripped off attached muscles and ligaments after sacrifice. […] The weight of bone measured in the air was marked as W-air. […] The apparent bone density was calculated as [W-air/(W-air minus W-water)] […]

[5] = test system: ovariectomized female Wistar rats (osteoporosis caused by estrogen deficiency); experiment: Ovariectomized rat osteoporosis model, bone histomorphometry of proximal tibia; assay type: in vivo; settings: two months, mean value; for Erosion surface (ES/BS, %) of proximal tibia: OVX group 5.8%, Sham 4.7%; for Bone volume % (BV/TV) of proximal tibia head trabecular bone: OVX group 12.50%, Sham 29.50%
Description: The purpose of this example is to show the potency of bakuchiol in treating osteoporosis, wherein ovary of a female rat is removed to stimulate osteoporosis caused by estrogen deficiency. The female Wistar rats of 16 weeks old (unless specified in the other experiment description) were obtained from the stock reared by the Animal breeding center, National Scientific Council in Taipei. These rats were grouped by weights matched in order to distribute the physiological response variation from rats evenly into each group. These rats were grouping as follows: • Baseline group fed with no drug added food (n=8) • Sham operation group fed with no drug added food (Sham) (n=10) • Ovariectomy operation group fed with no drug added food (OVX) (n=8) • Ovariectomy operation group fed with Drug A (5 mg/kg) added food (OVX+A) (n=9) • Ovariectomy operation group fed with Drug B (15 mg/kg) added food (OVX+B) (n=9) Ovariectomy (removal of ovaries) operation: Ovariectomy was induced using a protocol similar to that described by Wronski et al (Wronski et al, Endocrinology, 123(2), 681-86 (1988)). During the experiments, the rats were housed in hanging grid cages in groups of two at 21° C. with a 12 hours dark cycle. Food (Rat-mouse diet III, adequate in 1% of calcium content and 1.2% of phosphate content, Purina, USA) was administered by paired feeding between the experimental and control groups. Pair-feeding was carried out by calculating the average amount of food intake in the Sham group. So give the same amount of food to the OVX, OVX+A (5 mg/kg), OVX+B (15 mg/kg) group animals the following day. These animals were fed with a period of two months except for the baseline group which were killed on the very day of doing ovariectomy or sham operation. Rats of OVX+A and OVX+B groups were fed with the usual food chuck but added certain amount of compound A and B in it respectively. Water was given ad libitum to all rats. The test drug was weighted according to dose of 5 mg/kg and 15 mg/kg, and added into the ususal food chuck powder and mixed with 10% starch paste. After fully mixed, these chuck powder were made into mass manually and dried by air flow oven. The food with added drug to rats was performed by single blind method. These labeling and bone histomorphometry assessment were done based on standard procedure in bone research (Lin et al, Calcif. Tissue Int., 67, 373-377 (2000)). Specimen were prestained with Villanueva bone stain, then […] and embedded in London resin. Undecalcified sections of 7 μm thick were cut using Jung-K microtome (Leica Ltd, USA) and treated with Villanueva stain for observation under light microscopy. Seven μm thick unstained sections were prepared for fluorescent microscopy and assessed with program Osteomeasure (3.0 version, Atlanta, USA). […]

[6] = OVX + B group, 15 mg/kg in food

C=C[C@@](C)(/C=C/c1ccc(O)cc1)CCC=C(C)C [Bakuchiol, bakuchiol]
IC50 [1]: 5 µg/mL (≈ 19.5 µM)
IC50 [2]: 0.62 µg/mL (≈ 2.42 µM)
average inhibitory concentration (IC50) [3]: 10˜15 μg/cc
Bone apparent density of tibia ([4]; OVX + A group, 5 mg/kg in food): 1.582 gm/cm^3
Bone apparent density of tibia [4, 6]: 1.587 gm/cm^3
Erosion surface (ES/BS, %) of proximal tibia ([5]; OVX + A group, 5 mg/kg in food): 5.0%
Bone volume % (BV/TV) of proximal tibia head trabecular bone ([5]; OVX + A group, 5 mg/kg in food): 19.80%
Erosion surface (ES/BS, %) of proximal tibia [5, 6]: 4.8%
Bone volume % (BV/TV) of proximal tibia head trabecular bone [5, 6]: 20.11%
